Assay [1] relates to CVB4E2/plasma induced IFNα production by PBMCs. The assay is described as follows: CVB4E2/plasma induced IFNα production by PBMCs (DELFIA). The assay is classed as cell-based, human. As for the experimental part: VP4, H antigen or mock proteins were preincubated for 1 h at 37° C. at different concentrations with plasma from 5 healthy subjects diluted at optimal dilution (1/10 or 1/100 ). CVB3 or CVB4 were then added for 1 hour before incubating with PBMCs. […] On the contrary, the mock proteins isolated from non-infected Hep-2 cells have non effect on the IFNα production.
(§1) PBMCs separated from whole heparinated blood are distributed into microwells (plate of 96 wells), at the rate of 5 to 8.10^5 cell in 100 μl of supplemented RPMI medium by well. The infection of PBMC is made with a final volume of 100 μl of preparation in each well. After incubation for 48 h at 37° C. under a 5% CO2 atmosphere and 90% humidity, the supernatant is harvested and used immediately for IFNα dosage, or clarified by centrifugation for 10 minutes at 180×g and stored at −80° C. until dosage of the produced IFNα.
(§2) The concentration of the produced IFNα is determined with a sensitive and specific technique, the DELFIA method (Dissociation Enhanced Lanthanide FluoroImmmoAssay) (Rönnblom and al 1997).
(§3) The dosage of IFNα is performed following the DELFIA principle (Dissociation Enhanced Lanthanide FluoroImmunoAssay), based on a immunofluorescence in retarded phase method using antibodies binding IFNα of which one is labelled with europium. The use of an activation solution will release the europium conjugated with antibodies and emit a fluorescence proportional to the amount of produced IFNα and measured with a fluorometer (fluorometer LKB Wallac 1230 ARCOSO®, Turku, Finlande).
Monoclonal anti-IFNα antibodies LT 273 (5.4 mg/ml) and LT 293 (4.8 mg/ml) supplied by Dr Gunar Alm (Uppsala, Sweden) are coated to the bottom of the wells after an incubation for 12 hours at room temperature. These plates can be stored in a buffer at 4° C. or are used immediately. Standard samples of human IFNα are prepared with an “irrelevant” monoclonal mouse antibody IgG1 in order to establish the reference curve (10 measurements). The other samples to be analysed are added to each well (100 μl) with the dilution buffer and the “irrelevant” antibodies and incubated for 2 hours with gentle stirring at room temperature. The wells are washed 3 times with the washing solution. The antibody conjugated to europium (200 μl) is added to each well, left to incubate for 1 hour at room temperature with gentle stirring. The plate is washed 6 times with a washing solution. The activation solution (200 μl), added immediately after washing and left for 20 to 30 minutes for incubation in the well, causes a cleavage of the europium bound to the antibody fixed to IFNα, emitting a fluorescence measured with the fluorescence reader (LKB Wallac 1230 ARCUS®). The IFNα concentration will be calculated from the values of the measured fluorescence by means of the Graphpad program (San Diego, USA). The detection threshold of IFNα is of 0.5 IU/ml.
The plasma from a healthy donor (optimal dilution 1/10th or 1/100th) is pre-incubated for 1 hour at 37° C. with the recombinant VP4 protein of CVB4E2 (optimal concentration at 1 μg/ml). The whole is incubated again for one hour at 37° C. in the presence of the CVB4E2 virus (dilutions at 1/10th or 1/100th; viral titer at 10^13 TCID50/ml) then applied to the PBMCs, (5.10^5/well) to incubate for 48 hours.
In the same way, the plasma preparation preincubated for 1 hour and VP4 of CVB3 are incubated for 1 hour with CVB4E2 before infecting the PBMCs for 48 hours and determinating the amount of the produced IFNα.
The virus (CVB4E2 or CVB3) infected PBMCs in the presence of plasma are deemed to be positive controls of this experimentation. The negative controls are obtained with one well of PBMC alone, one well of virus CVB4B2 alone and one well of CVB3 alone.
The CVB4E2 induced IFNα production in cultures of PBMCs previously incubated in the presence of plasma from healthy subjects was measured. […]

For assay [2], the system named is different CVB serotypes (CVB1 to CVB6)/plasma induced IFNα production by PBMCs. Description: IFNα production during infection of PBMCs by different CVB serotypes in presence of plasma preincubated with VP4-CVB4E2. The assay is classed as cell-based, human. To be noted: plasma 1/10 preincubated 1 h with VP4 recombinant protein of CVB4E2 diluted 1/10. On the procedure: as §1, §2, §3
Monoclonal anti-IFNα antibodies LT 273 (5.4 mg/ml) and LT 293 (4.8 mg/ml) supplied by Dr Gunar Alm (Uppsala, Sweden) are coated to the bottom of the wells after an incubation for 12 hours at room temperature. […]

As to “recombinant VP4 protein: recombinant VP4 protein of CVB4E2, made in E. coli as MBP-VP4 fusion and cleaved by Factor Xa”, the IFNα production is recorded as 8.5 IU/ml in assay [1] (CVB4E2 infection of PBMCs, healthy donor plasma preincubated 1 h with the VP4 protein before CVB4E2, 48 h, positive control 148 IU/ml); 189.5+/−21.6 IU/mL in assay [1] (protein at 0.01 μg/mL preincubated with plasma, then CVB4E2 (m.o.i. 1), PBMCs 48 h, mean +/- SD, three donors); 104.7+/−4.5 IU/mL in assay [1] (protein at 0.1 μg/ml preincubated with plasma, then CVB4E2 (m.o.i. 1), PBMCs 48 h, mean +/- SD, three donors); 44.1+/−24.3 IU/mL in assay [1] (protein at 1 μg/ml preincubated with plasma, then CVB4E2 (m.o.i. 1), PBMCs 48 h, mean +/- SD, three donors); 15.3+/−7.9 IU/mL in assay [1] (protein at 10 μg/ml preincubated with plasma, then CVB4E2 (m.o.i. 1), PBMCs 48 h, mean +/- SD, three donors). Besides, the “IFNα production in the presence of CVB4E2” value in assay [1] (plasma 1/10 preincubated 1 h with VP4 recombinant protein of CVB4E2 diluted 1/10) was “collapsed”. Besides, the “IFNα production with CVB serotypes other than CVB4E2” value in assay [2] is “remains high and stable”.
